These results are taken from US10144706B2 (BRISTOL-MYERS SQUIBB COMPANY, priority 2016, dated 2018).

SMILES strings stand for the structures.

The target in the first assay is T1, PD-1/PD-L1 interaction (PD-1-Ig / PD-L1-His) (Homo sapiens, UniProt Q9NZQ7).
T1 construct: hPDL1(18-239)-TVMV-His; TVMV protease site linker (C); made in house; host or cells: HEK293T
T1 sequence (Q9NZQ7 with tags, fused parts or gaps): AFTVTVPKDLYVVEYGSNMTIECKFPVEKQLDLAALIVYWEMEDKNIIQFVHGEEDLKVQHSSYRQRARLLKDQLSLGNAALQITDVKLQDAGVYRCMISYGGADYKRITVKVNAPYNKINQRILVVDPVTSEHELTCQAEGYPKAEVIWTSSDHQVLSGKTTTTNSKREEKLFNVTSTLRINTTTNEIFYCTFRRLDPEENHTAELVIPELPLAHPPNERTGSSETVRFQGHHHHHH
The assay is described as follows: PD-1/PD-L1 Homogenous Time-Resolved Fluorescence (HTRF) binding assay. The settings on record: IC50 range class; PD-L1-His 10 nM, PD-1-Ig 20 nM; read-out: Range or IC50. In short, it runs like this:
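Human PD-L1-His (10 nM final) was pre-incubated with inhibitor for 15 min, then PD-1-Ig (20 nM final) was added for a further 15 min in dPBS with 0.1% BSA and 0.05% Tween-20. Binding was detected by HTRF using Eu-cryptate anti-Ig (1 nM) and APC anti-His (20 nM).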
Background: Time-resolved FRET reads energy transfer from a long-lived donor to a nearby acceptor.
As for `Cc1c(OCCCN(CCO)Cc2ccccc2)cccc1-c1cccc(OCCCN2CC[C@@H](O)C2)c1C` [Example 2072, (R)-1-(3-((3′-(3-(benzyl(2-hydroxyethyl)amino)propoxy)-2,2′-dimethyl-[1,1′-biphenyl]-3-yl)oxy)propyl)pyrrolidin-3-ol], the IC50 lay in the range of 90.1 to 1000 nM.
Still for that read-out and setting: to `Cc1c(OCCCN(CCO)CCC(C)C)cccc1-c1cccc(OCCCN2CC[C@@H](O)C2)c1C` [Example 2073, (R)-1-(3-((3′-(3-((2-hydroxyethyl)(isopentyl)amino)propoxy)-2,2′-dimethyl-[1,1′-biphenyl]-3-yl)oxy)propyl)pyrrolidin-3-ol] belongs 20.1 to 90 nM; to `Cc1c(OCCCN2CC[C@@H](O)C2)cccc1-c1cccc(OCCCN2CCC[C@@H](C(=O)O)C2)c1C` [Example 2074, (R)-1-(3-((3′-(3-((R)-3-hydroxypyrrolidin-1-yl)propoxy)-2,2′-dimethyl-[1,1′-biphenyl]-3-yl)oxy)propyl)piperidine-3-carboxylic acid], 90.1 to 1000 nM; to `Cc1c(OCCCNC[C@@H](O)c2ccc(F)c(Cl)c2)cccc1-c1cccc(OCCCN2CC[C@@H](O)C2)c1C` [Example 2075, (R)-1-(3-((3′-(3-(((S)-2-(3-chloro-4-fluorophenyl)-2-hydroxyethyl)amino)propoxy)-2,2′-dimethyl-[1,1′-biphenyl]-3-yl)oxy)propyl)pyrrolidin-3-ol], 20.1 to 90 nM.
Regarding `Cc1c(OCCCN(C)CCC(N)=O)cccc1-c1cccc(OCCCN(C)CCC(N)=O)c1C` [Example 2076], the IC50 is 20.1 to 90 nM.
`Cc1c(OCCCN(CCO)CCO)cccc1-c1cccc(OCCCN(CCO)CCO)c1C` [Example 2077, 2,2′,2″,2′″-((((2,2′-dimethyl-[1,1′-biphenyl]-3,3′-diyl)bis(oxy))bis(propane-3,1-diyl))bis(azanetriyl))tetrakis(ethan-1-ol)]: the IC50 was in the range of 20.1 to 90 nM.
Turning to `Cc1c(OCCCNC[C@H](O)CO)cccc1-c1cccc(OCCCNC[C@H](O)CO)c1C` [Example 2079, (2S,2′S)-3,3′-((((2,2′-dimethyl-[1,1′-biphenyl]-3,3′-diyl)bis(oxy))bis(propane-3,1-diyl))bis(azanediyl))bis(propane-1,2-diol)], the half-inhibitory concentration (IC50) was in the range of 0.04 to 20 nM.
For `Cc1c(OCCCNCCCO)cccc1-c1cccc(OCCCNC[C@H](O)CO)c1C` [Example 2080, (S)-3-((3-((3′-(3-((3-hydroxypropyl)amino)propoxy)-2,2′-dimethyl-[1,1′-biphenyl]-3-yl)oxy)propyl)amino)propane-1,2-diol], the 50% inhibitory concentration (IC50) fell in the range of 0.04 to 20 nM.
Regarding `Cc1c(OCCCNC[C@H](O)CO)cccc1-c1cccc(OCCCN2CCC[C@H](C(=O)O)C2)c1C` [Example 2081, (S)-1-(3-((3′-(3-(((S)-2,3-dihydroxypropyl)amino)propoxy)-2,2′-dimethyl-[1,1′-biphenyl]-3-yl)oxy)propyl)piperidine-3-carboxylic acid], the half-maximal inhibitory concentration (IC50) was in the range of 20.1 to 90 nM.
For `Cc1c(OCCCN2CCC[C@H](C(=O)O)C2)cccc1-c1cccc(OCCCN2CCC[C@H](C(=O)O)C2)c1C` [Example 2082, (3S,3′S)-1,1′-(((2,2′-dimethyl-[1,1′-biphenyl]-3,3′-diyl)bis(oxy))bis(propane-3,1-diyl))bis(piperidine-3-carboxylic acid)], the half-maximal inhibitory concentration (IC50) is 90.1 to 1000 nM.
As to `Cc1c(OCCCN2CC[C@H](O)[C@@H](O)C2)cccc1-c1cccc(OCCCN2CC[C@H](O)[C@@H](O)C2)c1C` [Example 2084, (3S,3′S,4S,4′S)-1,1′-(((2,2′-dimethyl-[1,1′-biphenyl]-3,3′-diyl)bis(oxy))bis(propane-3,1-diyl))bis(piperidine-3,4-diol)], the IC50 was in the range of 20.1 to 90 nM.
As to `Cc1c(OCCCN2CCN(CCO)CC2)cccc1-c1cccc(OCCCN2CCN(CCO)CC2)c1C` [Example 2085, 2,2′-((((2,2′-dimethyl-[1,1′-biphenyl]-3,3′-diyl)bis(oxy))bis(propane-3,1-diyl))bis(piperazine-4,1-diyl))bis(ethan-1-ol)], the IC50 is 90.1 to 1000 nM.
The same measure, in the same setting: to `Cc1c(OCCCNCCc2cccnc2)cccc1-c1cccc(OCCCNCCc2cccnc2)c1C` [Example 2086, 3,3′-((2,2′-dimethyl-[1,1′-biphenyl]-3,3′-diyl)bis(oxy))bis(N-(2-(pyridin-3-yl)ethyl)propan-1-amine)] belongs 0.04 to 20 nM; to `Cc1c(OCCCN2CC(N(C)C)C2)cccc1-c1cccc(OCCCN2CC(N(C)C)C2)c1C` [Example 2087, 1,1′-(((2,2′-dimethyl-[1,1′-biphenyl]-3,3′-diyl)bis(oxy))bis(propane-3,1-diyl))bis(N,N-dimethylazetidin-3-amine)], 90.1 to 1000 nM.
Turning to `Cc1c(OCCCN[C@@H]2C[C@H](CO)[C@@H](O)[C@H]2O)cccc1-c1cccc(OCCCN[C@@H]2C[C@H](CO)[C@@H](O)[C@H]2O)c1C` [Example 2088, (1S,1′S,2R,2′R,3R,3′R,5R,5′R)-5,5′-((((2,2′-dimethyl-[1,1′-biphenyl]-3,3′-diyl)bis(oxy))bis(propane-3,1-diyl))bis(azanediyl))bis(3-(hydroxymethyl)cyclopentane-1,2-diol)], the IC50 lay in the range of 0.04 to 20 nM.
Consider `Cc1c(OCCCN(C)C2CC(O)C2)cccc1-c1cccc(OCCCN(C)C2CC(O)C2)c1C` (stereo not drawn) [Example 2090, 3,3′-((((2,2′-dimethyl-[1,1′-biphenyl]-3,3′-diyl)bis(oxy))bis(propane-3,1-diyl))bis(methylazanediyl))bis(cyclobutan-1-ol)], for which the concentration for half-maximal inhibition (IC50) is 20.1 to 90 nM.
Turning to `Cc1c(OCCCN[C@@H](c2ccccc2)[C@H](O)CO)cccc1-c1cccc(OCCCN2CC[C@@H](O)C2)c1C` [Example 2091, (2S,3S)-3-((3-((3′-(3-((R)-3-hydroxypyrrolidin-1-yl)propoxy)-2,2′-dimethyl-[1,1′-biphenyl]-3-yl)oxy)propyl)amino)-3-phenylpropane-1,2-diol], the IC50 lay within 20.1 to 90 nM.
Regarding `Cc1c(OCCCN2CC[C@@H](O)C2)cccc1-c1cccc(OCCCN2CCO[C@@H](CO)C2)c1C` [Example 2092, (R)-1-(3-((3′-(3-((R)-2-(hydroxymethyl)morpholino)propoxy)-2,2′-dimethyl-[1,1′-biphenyl]-3-yl)oxy)propyl)pyrrolidin-3-ol], the IC50 was 20.1 to 90 nM.
With `Cc1c(OCCCN(C)CCCN(C)CCCOc2cccc(-c3cccc(OCCCN4CC[C@@H](O)C4)c3C)c2C)cccc1-c1cccc(OCCCN2CC[C@@H](O)C2)c1C` [Example 2093, (3R,3′R)-1,1′-((((((propane-1,3-diylbis(methylazanediyl))bis(propane-3,1-diyl))bis(oxy))bis(2,2′-dimethyl-[1,1′-biphenyl]-3′,3-diyl))bis(oxy))bis(propane-3,1-diyl))bis(pyrrolidin-3-ol)], the IC50 lay within 20.1 to 90 nM.
Consider `COCC(O)CNCCCOc1cccc(-c2cccc(OCCCNCC(O)COC)c2C)c1C` (stereo not drawn) [Example 2094, 3,3′-((((2,2′-dimethyl-[1,1′-biphenyl]-3,3′-diyl)bis(oxy))bis(propane-3,1-diyl))bis(azanediyl))bis(1-methoxypropan-2-ol)], for which the IC50 lay in the range of 0.04 to 20 nM.
Regarding `Cc1c(OCCCN(C)CCOCCN(C)CCCOc2cccc(-c3cccc(OCCCN4CC[C@@H](O)C4)c3C)c2C)cccc1-c1cccc(OCCCN2CC[C@@H](O)C2)c1C` [Example 2095, (3R,3′R)-1,1′-(((((((oxybis(ethane-2,1-diyl))bis(methylazanediyl))bis(propane-3,1-diyl))bis(oxy))bis(2,2′-dimethyl-[1,1′-biphenyl]-3′,3-diyl))bis(oxy))bis(propane-3,1-diyl))bis(pyrrolidin-3-ol)], the IC50 was in the range of 20.1 to 90 nM.
Turning to `CNCCOCCN(C)CCCOc1cccc(-c2cccc(OCCCN3CC[C@@H](O)C3)c2C)c1C` [Example 2096, (R)-1-(3-((2,2′-dimethyl-3′-(3-(methyl(2-(2-(methylamino)ethoxy)ethyl)amino)propoxy)-[1,1′-biphenyl]-3-yl)oxy)propyl)pyrrolidin-3-ol], the half-inhibitory concentration (IC50) was 20.1 to 90 nM.
Turning to `Cc1c(OCCCN[C@H](CO)[C@H](O)c2ccccc2)cccc1-c1cccc(OCCCN[C@H](CO)[C@H](O)c2ccccc2)c1C` [Example 2097], the half-inhibitory concentration (IC50) lay in the range of 90.1 to 1000 nM.
Take `Cc1c(OCCCNC[C@H](O)CO)cccc1-c1cccc(OCCCN[C@H](CO)[C@H](O)c2ccccc2)c1C` [Example 2098, (S)-3-((3-((3′-(3-(((1R,2R)-1,3-dihydroxy-1-phenylpropan-2-yl)amino)propoxy)-2,2′-dimethyl-[1,1′-biphenyl]-3-yl)oxy)propyl)amino)propane-1,2-diol]: the IC50 was 0.04 to 20 nM.
Regarding `Cc1c(OCCCN(CC#N)C[C@H](O)CO)cccc1-c1cccc(OCCCN(CC#N)C[C@H](O)CO)c1C` [Example 2100, 2,2′-((((2,2′-dimethyl-[1,1′-biphenyl]-3,3′-diyl)bis(oxy))bis(propane-3,1-diyl))bis(((S)-2,3-dihydroxypropyl)azanediyl))diacetonitrile], the IC50 lay within 20.1 to 90 nM.

The same assay, now with this note: numeric IC50; PD-L1-His 10 nM, PD-1-Ig 20 nM; read-out: Range or IC50.
Take `Cc1c(OCCCNCCc2ccncc2)cccc1-c1cccc(OCCCN[C@@H]2C[C@H](CO)[C@@H](O)[C@H]2O)c1C` [Example 2089, (1R,2S,3R,5R)-3-((3-((2,2′-dimethyl-3′-(3-((2-(pyridin-4-yl)ethyl)amino)propoxy)-[1,1′-biphenyl]-3-yl)oxy)propyl)amino)-5-(hydroxymethyl)cyclopentane-1,2-diol]: the IC50 turned out to be 7.1 nM.
For `Cc1c(OCCCN(Cc2cncc(C#N)c2)C[C@H](O)CO)cccc1-c1cccc(OCCCN(Cc2cncc(C#N)c2)C[C@H](O)CO)c1C` [Example 2099, 5,5′-(((((2,2′-dimethyl-[1,1′-biphenyl]-3,3′-diyl)bis(oxy))bis(propane-3,1-diyl))bis(((S)-2,3-dihydroxypropyl)azanediyl))bis(methylene))dinicotinonitrile], the IC50 is 1250 nM.

As a reminder, the IC50 is the concentration at which inhibition is half-maximal.
